Laboratory results: PMC10382584, “Macrocyclization of linear molecules by deep learning to facilitate macrocyclic drug candidates discovery” (Nature Communications, 2023)
“And” between values parts separate entries of the source, which are not always exact repeats. Identical values can stand only once. Like-named read-outs stand apart in the source and are kept apart here.

Assays:
JAK2 = biological target: T1, JAK2 (Homo sapiens, UniProt O60674); assay: JAK2 enzyme assay (Z'-LYTE kinase assay kit); format: biochemical
T1 construct: 0.05–0.42 ng JAK2, 2 μM peptide substrate (Tyr06)
Method: JAK kinase activity assays were performed using Z’-LYTETM kinase assay kit (Life Technologies, pv4122). […] The mixture was added into the 384-well microplate, shaken gently, and then incubated at room temperature for 1 h. Subsequently, 5 μL development solution was added to the well for incubating another 1 h. Finally, 5 μL stop reagent was added to stop the reaction. […] IC50 values were calculated using GraphPad Prism v8.0.3, and three parallel experiments were performed.

HEL cells = assay: Cell proliferation assay (CCK-8), HEL cells; format: cell-based, human; conditions: for Inhibition (%): single wells, replicates 1 and 2
Method: (§1) The human erythroid leukemia (HEL 92.1.7) cells were purchased from the American Type Culture Collection (ATCC, TIB-180), and the human megakaryoblastic (SET2) cells were obtained from German Collection of Microorganisms and Cell Cultures (DSMZ, ACC 608). The anti-proliferative activities of compounds were evaluated using WST-8 cell counting kit-8 (Elabscience). HEL and SET-2 cells were seeded at 5000 cells/well in 70 μL RPMI-1640 medium (Hyclon) with 10% FBS (Gibco) to the 96-well plate and incubated overnight at 37 °C with 5% CO2. The compounds were serially diluted in RPMI-1640 medium, and cells were treated separately with 30 μL various concentrations of compounds for 72 h. The final DMSO concentration in the culture wells was 0.1%, which had no effect on the cell viability. Finally, 10 μL of CCK-8 solution was added into the wells. 4 h later, the absorbance values at 450 nm were recorded. IC50 values were determined using GraphPad Prism v8.3.0, and three parallel experiments were performed.

SET-2 cells = assay: Cell proliferation assay (CCK-8), SET-2 cells; format: cell-based, human; conditions: for Inhibition (%): single wells, replicates 1 and 2
Method: as §1

[1] = Chemical stability in DMSO stock solution (HPLC purity); format: physicochemical; conditions: mean±SD
Description: compounds were formulated in the solubilizing vehicle (5% DMSO/30% PEG400/65% […]
safety to the mice in the test.
6. What was the sample dissolved in for the in vitro and in vivo experiments? Response: The solvent information for the in vitro and in vivo experiments has been added in the revised manuscript. […]
7. Was the stability of the different compounds assessed and compared to Fedratinib? This is generally a critical point in macrocyclic studies. […]
in DMSO stock solution. Test compounds were incubated at room temperature and 60 ℃, respectively, for 72 h, and their purities (%) were determined using HPLC equipped with a CORTECS C18 column (4.6*50 mm, 2.7 μm particle size) and a UV/VIS detector setting of λ=210 nm. All co mpounds were eluted with the two solvent systems ([…] as organic phase in Method I and CH3OH as organic phase in Method II) at a flow rate of 0.3 ml/min. Each experiment repeated for three times and the results are represented as mean±SD.
Ta b e l R 1 . Comparison of chemical stability of different compounds at room temperature and 60 ℃, respectively.

DSS-induced colitis mice = assay: In vivo efficacy study, DSS-induced colitis model; parameters: species or system male BALB/c mice; conditions: SASP 500 mg/kg; for Body weight (Fig. 6a) / DAI score (Fig. 6b): individual mice
Method: Model mice were divided into four groups and eight mice were included in each group on day 8. […] Meanwhile, solvent was given intragastrically to the control group and model group. On day 15, the mice were sacrificed, and the length and weight of each colon were measured.
Body weight, the stool consistency, and the presence of blood in feces were recorded daily in the morning. […] The maximum score was 9, which was the sum of the scores. About 1-cm colon tissue, which is 0.5 cm away from the anal margin, was collected, and the ileocecal area was used for histopathological examination. After H&E staining, the tissues were scored under single-blind conditions to evaluate the levels of inflammation and tissue damage in the colons following the criteria proposed by ref. [62]. Statistical analyses were performed using SPSS v24.0.

T1 sequence (O60674 whole entry): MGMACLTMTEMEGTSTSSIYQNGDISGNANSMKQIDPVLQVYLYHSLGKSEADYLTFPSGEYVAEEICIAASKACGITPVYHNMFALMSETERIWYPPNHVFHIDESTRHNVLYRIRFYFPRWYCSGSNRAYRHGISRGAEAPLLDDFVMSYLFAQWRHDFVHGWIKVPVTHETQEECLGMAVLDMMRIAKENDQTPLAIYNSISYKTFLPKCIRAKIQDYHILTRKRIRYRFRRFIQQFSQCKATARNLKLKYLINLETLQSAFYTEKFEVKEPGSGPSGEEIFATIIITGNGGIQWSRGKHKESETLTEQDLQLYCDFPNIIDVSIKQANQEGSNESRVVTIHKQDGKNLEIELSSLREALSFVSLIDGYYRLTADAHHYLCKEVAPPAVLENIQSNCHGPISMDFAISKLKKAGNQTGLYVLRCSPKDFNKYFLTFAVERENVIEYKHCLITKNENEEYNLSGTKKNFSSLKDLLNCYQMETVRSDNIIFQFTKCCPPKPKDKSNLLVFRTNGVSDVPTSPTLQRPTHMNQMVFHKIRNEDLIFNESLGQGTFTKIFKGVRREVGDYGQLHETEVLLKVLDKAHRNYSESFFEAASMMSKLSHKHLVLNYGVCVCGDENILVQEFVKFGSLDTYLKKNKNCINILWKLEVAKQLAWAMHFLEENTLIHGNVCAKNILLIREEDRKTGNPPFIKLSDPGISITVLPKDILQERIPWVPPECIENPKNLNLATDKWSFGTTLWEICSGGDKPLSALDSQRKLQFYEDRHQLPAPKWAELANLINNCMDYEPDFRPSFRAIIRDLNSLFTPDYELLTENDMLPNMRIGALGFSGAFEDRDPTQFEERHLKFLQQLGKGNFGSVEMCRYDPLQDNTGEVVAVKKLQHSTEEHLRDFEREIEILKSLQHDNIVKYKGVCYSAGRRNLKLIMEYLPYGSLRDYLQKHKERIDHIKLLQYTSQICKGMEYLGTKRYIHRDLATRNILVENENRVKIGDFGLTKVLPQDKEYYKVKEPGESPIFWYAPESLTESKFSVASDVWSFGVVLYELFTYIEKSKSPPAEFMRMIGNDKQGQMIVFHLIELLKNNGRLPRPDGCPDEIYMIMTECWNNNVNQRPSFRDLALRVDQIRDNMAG

With `Cc1cnc2nc1Nc1cccc(c1)C(=O)N(C)Cc1cc(ccc1OCCN1CCCC1)N2` [Compound 2] the IC50 (JAK2; JAK2, 25 μM ATP, mean ± SD, n = 3, read-out: Enzyme Inhibitory Activity (IC50)) was 0.364 µM, the IC50 (JAK2; JAK2 enzyme, mean of 3 replicates, read-out: IC50/μM mean, enzyme inhibitory activity) was 0.364 µM and the IC50 (JAK2; JAK2 enzyme, mean ± SD of 3 replicates, read-out: IC50/μM mean ± SD, enzyme inhibitory activity) was 0.364 ± 0.007 µM. For the same compound, the IC50 (JAK2; JAK2 enzyme, single-replicate fits (replicates 1-3), read-out: IC50/μM (individual replicates), enzyme inhibitory activity) was 0.366 µM and 0.356 µM and 0.37 µM, the “Inhibition (%)” value (HEL cells; HEL cell lines, 0.0977 μM) was 2.051% and -1.891% and 1.838% and 11.186% and -5.882% and -1.006% and the “Inhibition (%)” value (HEL cells; HEL cell lines, 0.1953 μM) was 0.772% and 1.838% and 2.477% and 15.575% and -7.833% and -8.321%. For the same compound, the “Inhibition (%)” value (HEL cells; HEL cell lines, 0.3906 μM) was 2.264% and 1.518% and 1.625% and 18.866% and -1.250% and -7.345%, the “Inhibition (%)” value (HEL cells; HEL cell lines, 0.7813 μM) was 10.786% and 8.762% and 8.549% and 18.744% and 6.553% and -6.614% and the “Inhibition (%)” value (HEL cells; HEL cell lines, 1.5625 μM) was 18.882% and 12.064% and 2.264% and 20.207% and 10.332% and -0.152%. The “Inhibition (%)” value (HEL cells; HEL cell lines, 3.1250 μM, 3.125 µM) was 25.273% and 19.521% and 12.916% and 41.664% and 20.207% and 14.721%, the “Inhibition (%)” value (HEL cells; HEL cell lines, 6.2500 μM, 6.25 µM) was 42.104% and 34.754% and 32.197% and 45.931% and 34.837% and 31.058% and the “Inhibition (%)” value (HEL cells; HEL cell lines, 12.5000 μM, 12.5 µM) was 71.398% and 70.120% and 69.694% and 81.042% and 74.825% and 72.874%. For the same compound, the IC50 (HEL cells; HEL cell lines, mean of 2 replicates, read-out: IC50/μM mean, cellular antiproliferative activity) was 7.34 µM, the IC50 (HEL cells; HEL cell lines, mean ± sd of 2 replicates, read-out: IC50/μM mean ± sd, cellular antiproliferative activity) was 7.34 ± 0.44 µM and the IC50 (HEL cells; HEL cell lines, single-replicate fits, read-out: IC50/μM (individual replicates), cellular antiproliferative activity) was 7.03 µM and 7.65 µM. For the same compound, the IC50 (HEL cells; HEL cells, 72 h, mean ± SD, read-out: Cellular Antiproliferative Activity (IC50) HEL) was 7.34 ± 0.44 µM, the “Inhibition (%)” value (SET-2 cells; SET-2 cell lines, 0.0977 μM) was 7.592% and 1.623% and 1.518% and -0.378% and 0.918% and 6.534% and the “Inhibition (%)” value (SET-2 cells; SET-2 cell lines, 0.1953 μM) was 8.325% and -1.100% and -4.241% and -2.322% and 3.294% and 8.909%. For the same compound, the “Inhibition (%)” value (SET-2 cells; SET-2 cell lines, 0.3906 μM) was 0.681% and -1.309% and -10.209% and -2.322% and 6.965% and 5.562%, the “Inhibition (%)” value (SET-2 cells; SET-2 cell lines, 0.7813 μM) was -8.429% and 1.100% and -6.440% and -0.270% and 5.886% and 6.102% and the “Inhibition (%)” value (SET-2 cells; SET-2 cell lines, 1.5625 μM) was -4.869% and -5.916% and -2.880% and 1.998% and 4.914% and -0.162%. For the same compound, the “Inhibition (%)” value (SET-2 cells; SET-2 cell lines, 3.1250 μM, 3.125 µM) was 4.031% and -0.576% and -2.984% and 1.674% and 9.233% and -1.350%, the “Inhibition (%)” value (SET-2 cells; SET-2 cell lines, 6.2500 μM, 6.25 µM) was 8.744% and 16.702% and 4.555% and 8.801% and 8.153% and 7.613% and the “Inhibition (%)” value (SET-2 cells; SET-2 cell lines, 12.5000 μM, 12.5 µM) was 20.471% and 17.330% and 11.885% and 18.953% and 16.793% and 14.741%. For the same compound, the IC50 (SET-2 cells; SET-2 cell lines, single-replicate fits, read-out: IC50/μM (individual replicates), cellular antiproliferative activity) was over 25 µM, the IC50 (SET-2 cells; SET-2 cells, 72 h, mean ± SD, read-out: Cellular Antiproliferative Activity (IC50) SET-2) was over 25 µM and the “purity after incubation in DMSO stock solution” value (from here on “purity after incubation”) ([1]; 60 ℃, 0 h) was 99.59±0.13%. The “purity after incubation” value ([1]; 60 ℃, 2 h) was 99.60±0.06%, the “purity after incubation” value ([1]; 60 ℃, 24 h) was 100.00±0.00% and the “purity after incubation” value ([1]; 60 ℃, 48 h) was 99.61±0.01%. For the same compound, the “purity after incubation” value ([1]; 60 ℃, 72 h) was 99.43±0.09%, the “purity after incubation” value ([1]; Room Temperature, 0 h) was 99.65±0.05% and the “purity after incubation” value ([1]; Room Temperature, 2 h) was 99.65±0.05%. For the same compound, the “purity after incubation” value ([1]; Room Temperature, 24 h) was 100.00±0.00%, the “purity after incubation” value ([1]; Room Temperature, 48 h) was 99.99±0.01% and the “purity after incubation” value ([1]; Room Temperature, 72 h) was 99.50±0.06%.

For `O=C(O)c1cc(/N=N/c2ccc(S(=O)(=O)Nc3ccccn3)cc2)ccc1O` [Salicylazosulfapyridine], the “Body weight (Fig. 6a)” value (DSS-induced colitis mice; day 0) was 22.7 and 23.7 and 19.3 and 23.6 and 21.6 and 22.9 and 21.7 (2×), the “DAI score (Fig. 6b)” value (DSS-induced colitis mice; day 0) was 0 and the “DAI score (Fig. 6b)” value (DSS-induced colitis mice; day 1) was 0 (7×) and 1. The “Body weight (Fig. 6a)” value (DSS-induced colitis mice; day 1, in g (unit assumed)) was 23.2 and 23.6 and 22.1 and 24.5 and 21.4 and 22.4 and 22 and 22.5, the “DAI score (Fig. 6b)” value (DSS-induced colitis mice; day 2) was 0 (7×) and 1 and the “Body weight (Fig. 6a)” value (DSS-induced colitis mice; day 2, in g (unit assumed)) was 23.3. The “DAI score (Fig. 6b)” value (DSS-induced colitis mice; day 3) was 1 (6×) and 0 (2×), the “DAI score (Fig. 6b)” value (DSS-induced colitis mice; day 4) was 4 and 2 and 1 (4×) and 3 and 0 and the “Body weight (Fig. 6a)” value (DSS-induced colitis mice; day 4, in g (unit assumed)) was 22.3 and 22.4 and 22.1 and 23.7 and 20.4 and 22.9 and 21.3 and 22.8. The “DAI score (Fig. 6b)” value (DSS-induced colitis mice; day 5) was 4 and 2 (4×) and 1 (2×) and 6, the “Body weight (Fig. 6a)” value (DSS-induced colitis mice; day 5, in g (unit assumed)) was 20.8 and 20.9 and 21.8 and 22.6 and 19.7 and 21.4 and 20.2 and 21.2 and the “DAI score (Fig. 6b)” value (DSS-induced colitis mice; day 6) was 5 (4×) and 7 and 3 and 1 (2×). The “Body weight (Fig. 6a)” value (DSS-induced colitis mice; day 6, in g (unit assumed)) was 19 and 19.1 and 21.1 and 21.3 and 18.6 and 19.3 and 19.2 and 20.2, the “DAI score (Fig. 6b)” value (DSS-induced colitis mice; day 7) was 8 and 6 and 1 and 4 and 5 (2×) and 3 and 2 and the “Body weight (Fig. 6a)” value (DSS-induced colitis mice; day 7, in g (unit assumed)) was 16.8 and 17.9 and 20.5 and 20.7 and 18.1 and 17.6 and 17 and 18.6. For the same compound, the “DAI score (Fig. 6b)” value (DSS-induced colitis mice; day 8) was 2 (2×) and 5 and 1 (3×) and 0 (2×), the “Body weight (Fig. 6a)” value (DSS-induced colitis mice; day 8, in g (unit assumed)) was 16.9 and 16.6 and 19.6 and 19.9 and 16.5 and 17.3 and 18.4 and 19.2 and the “Body weight (Fig. 6a)” value (DSS-induced colitis mice; day 9) was 18 (2×) and 17.2 and 19.6 and 20.6 and 15.7 and 19.4 and 20.8. For the same compound, the “DAI score (Fig. 6b)” value (DSS-induced colitis mice; day 9) was 0 (7×) and 1, the “DAI score (Fig. 6b)” value (DSS-induced colitis mice; day 10) was 2 (4×) and 1 (2×) and 3 and 0 and the “Body weight (Fig. 6a)” value (DSS-induced colitis mice; day 10, in g (unit assumed)) was 17.1 and 16.7 and 19.2 and 21.8 and 17.6 and 20.2 and 22.1. For the same compound, the “DAI score (Fig. 6b)” value (DSS-induced colitis mice; day 11) was 0 (5×) and 1 (2×), the “Body weight (Fig. 6a)” value (DSS-induced colitis mice; day 11, in g (unit assumed)) was 17.6 and 16.3 and 19.7 and 21.9 and 19.1 and 19.8 and 22.6 and the “DAI score (Fig. 6b)” value (DSS-induced colitis mice; day 12) was 0. The “Body weight (Fig. 6a)” value (DSS-induced colitis mice; day 12, in g (unit assumed)) was 19 and 17.1 and 20.3 and 22.2 and 19.5 and 21.5 and 22.4, the “Body weight (Fig. 6a)” value (DSS-induced colitis mice; day 13, in g (unit assumed)) was 18.8 and 17.7 and 20 and 23.6 and 20.2 and 21.5 and 22.6 and the “Body weight (Fig. 6a)” value (DSS-induced colitis mice; day 14, in g (unit assumed)) was 19.5 and 18.6 and 19.8 and 24.4 and 21 and 22.1 and 22.5. The “HE staining score (Fig. 6d)” value (DSS-induced colitis mice; individual colon tissues (n = 8)) was 3 and 1 and 2.
